Measured values as given in US10005824B2, “Selective PYY compounds and uses thereof” (Novo Nordisk A/S, priority 2015, dated 2018).
Where two headings read alike, the source gives them in different places.

What was measured:
human Y1 receptor = biological target: T1, human Y1 receptor (Homo sapiens, UniProt P25929); assay: Scintillation proximity assay (SPA) receptor binding, Y1
T1 construct: expressed in transfected cells; host or cells: BHK-21 clone 6-482-8, IPTG-induced (membrane preparation)
T1 sequence (P25929 1-384): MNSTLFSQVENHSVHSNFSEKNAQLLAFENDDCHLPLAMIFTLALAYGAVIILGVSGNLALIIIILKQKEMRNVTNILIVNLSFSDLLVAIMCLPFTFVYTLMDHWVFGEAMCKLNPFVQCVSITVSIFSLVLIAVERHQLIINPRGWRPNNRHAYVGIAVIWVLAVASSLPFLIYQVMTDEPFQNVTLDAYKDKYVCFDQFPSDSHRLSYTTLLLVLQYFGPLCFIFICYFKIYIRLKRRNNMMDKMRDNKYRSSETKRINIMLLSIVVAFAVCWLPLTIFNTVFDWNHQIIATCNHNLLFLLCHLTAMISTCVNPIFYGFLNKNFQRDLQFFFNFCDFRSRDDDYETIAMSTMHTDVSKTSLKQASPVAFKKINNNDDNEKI
Description: (§1) The purpose of this example is to test the in vitro binding of the PYY compounds to the Y1, Y2, Y4 and Y5 receptor subtypes, respectively. The receptor binding affinity is a measure of affinity of a compound for the human Y1, Y2, Y4 and Y5 receptor subtypes, respectively.
(§2) Scintillation Proximity Assay (SPA)
(§3) NPY-Receptor Expressing Cell Lines.
(§4) All cells were cultured at +37° C. in a humidified atmosphere with 5% CO2. […] CHO-K1 cells stably expressing the human Y2 receptor (P49146, NPY2R_HUMAN, Uniprot) were cultured in DMEM F-12 with 10% FBS, 1% P/S, 150 μg/ml Hygromycin B and 10 μg/ml Puromycin antibiotic. CHO-K1 cells stably expressing the human Y4 receptor (P50391, NPY4R_HUMAN, Uniprot) were cultured in DMEM F-12 with 10% FBS, 1% P/S, 10 μg/ml Puromycin. HEK-293 cells stably expressing the human Y5 receptor (Q15761, NPY5R_HUMAN, Uniprot) were cultured in DMEM F-12 medium containing 10% FBS, 1% Penicillin-Streptomycin, 250 μg/ml G418 and 1 μg/ml puromycin.
(§5) The homogenate was centrifuged at 35000 g using an ultracentrifuge for 10 minutes at +4° C. and the supernatant was discarded and fresh homogenization buffer added. Homogenization of the pellet was repeated a total of three times.
(§6) Human Y receptor SPA binding assay were performed in white 96-well plates in a total volume of 200 μl per well.
(§7) Plates were sealed and incubated at +25° C. for 2 hours in a plate shaker set at 400 rpm and thereafter centrifuged at 1500 rpm for 10 minutes prior to reading of luminescence on a microplate scintillation and luminescence counter. […] Displacement of radioligand was measured as reduction in luminescence and IC50 values were calculated by nonlinear regression analysis of sigmoidal dose-response curves.

human NPY Y2 receptor = biological target: T2, human NPY Y2 receptor (Homo sapiens, UniProt P49146); assay: Actone functional potency assay (Y2 in vitro potency, whole cell); type: cell-based
T2 construct: host or cells: HEK-293 cells that also express a cAMP-sensitive calcium channel
T2 sequence (P49146 1-381): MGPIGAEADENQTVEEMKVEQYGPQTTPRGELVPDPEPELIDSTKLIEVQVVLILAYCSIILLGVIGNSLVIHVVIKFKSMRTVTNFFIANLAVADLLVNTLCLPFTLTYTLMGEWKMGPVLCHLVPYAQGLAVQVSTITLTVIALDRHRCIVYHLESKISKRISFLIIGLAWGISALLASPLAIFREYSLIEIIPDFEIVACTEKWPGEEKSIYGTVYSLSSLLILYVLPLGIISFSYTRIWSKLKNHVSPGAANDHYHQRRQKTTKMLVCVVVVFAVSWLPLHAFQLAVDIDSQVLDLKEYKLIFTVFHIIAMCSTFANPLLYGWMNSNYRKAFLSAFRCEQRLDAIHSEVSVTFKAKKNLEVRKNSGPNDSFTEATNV
Source text: The purpose of this example is to test the activity, or potency, of the PYY compounds in vitro. The Y2 in vitro potency is the measure of the activation of the human Y2 receptor subtype in a whole cell assay.
Actone Functional Potency Assay
The Neuropeptide Y (NPY) receptors are Gi-coupled seven trans-membrane receptors that mainly signal through the cAMP dependent pathway by inhibiting adenylate cyclase activity which results in a decrease of cAMP production from ATP. The Actone assay is based on a modified calcium channel that has a selective binding for cAMP, resulting in cellular calcium influx, detected by a calcium responsive dye. In order to measure decreased levels of cAMP, as result of NPY receptor activation, the β1/β2-adrenoreceptor agonist, isoproterenol, is added to activate adenylate cyclase and increases cAMP levels in the cell. Decreased cellular calcium concentrations, reflecting a decrease of cAMP levels due to NPY receptor activation, is detected as a decrease in fluorescence from the calcium sensitive dye.

human Y4 receptor = biological target: T3, human Y4 receptor (Homo sapiens, UniProt P50391); assay: Scintillation proximity assay (SPA) receptor binding, Y4; conditions: membranes of CHO-K1 cells, [125I]-Pancreatic Polypeptide
T3 construct: expressed in transfected cells; host or cells: CHO-K1 (membrane preparation)
Description: as §1, §2, §3, §4, §5, §6, §7

T3 sequence (P50391 whole entry): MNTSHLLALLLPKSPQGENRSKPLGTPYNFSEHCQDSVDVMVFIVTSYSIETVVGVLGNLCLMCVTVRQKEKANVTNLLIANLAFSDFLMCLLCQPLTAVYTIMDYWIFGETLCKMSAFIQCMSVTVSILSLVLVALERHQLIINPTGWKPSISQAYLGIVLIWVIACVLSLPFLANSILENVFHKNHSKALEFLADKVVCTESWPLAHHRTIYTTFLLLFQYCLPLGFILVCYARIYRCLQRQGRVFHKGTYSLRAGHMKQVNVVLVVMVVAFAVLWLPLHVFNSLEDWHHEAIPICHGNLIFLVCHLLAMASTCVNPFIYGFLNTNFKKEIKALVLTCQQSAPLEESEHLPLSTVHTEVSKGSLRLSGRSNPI

Row | Ki (human Y1 receptor; membranes of BHK-21 cells, [125I]-PYY(1-36), read-out: Y1 Ki) [nM] | Ki (human Y4 receptor; read-out: Y4 Ki) [nM] | SMILES | Ki (human Y1 receptor) [nM] | EC50 (human NPY Y2 receptor) [nM] | Ki (human Y4 receptor; Y4 Ki) [nM]
1 | – | – | CC(C)CC(=O)N[C@@H](CCCNC(=N)N)C(=O)N1CCC[C@H]1C(=O)N[C@@H](CCC(=O)O)C(=O)N[C@@H](CCCCNC(=O)CC[C@H](NC(=O)CCCCCCCCCCCCCCCCC(=O)O)C(=O)O)C(=O)N1CCC[C@H]1C(=O)N[C@H](C(=O)N[C@@H](CCC(=O)O)C(=O)N[C@@H](CC(=O)O)C(=O)N[C@@H](C)C(=O)N[C@@H](CO)C(=O)N1CCC[C@H]1C(=O)N[C@@H](CCC(=O)O)C(=O)N[C@@H](CCC(=O)O)C(=O)N[C@@H](CC(C)C)C(=O)N[C@@H](CCC(N)=O)C(=O)N[C@@H](CCCNC(=N)N)C(=O)N[C@@H](Cc1ccc(O)cc1)C(=O)N[C@@H](Cc1ccc(O)cc1)C(=O)N[C@@H](CCC(N)=O)C(=O)N[C@@H](CO)C(=O)N[C@@H](CC(C)C)C(=O)N[C@@H](CCCNC(=N)N)C(=O)N[C@@H](Cc1c[nH]cn1)C(=O)N[C@@H](Cc1ccc(O)cc1)C(=O)N[C@@H](Cc1ccc(O)cc1)C(=O)N[C@@H](CC(N)=O)C(=O)N[C@@H](Cc1c[nH]c2ccccc12)C(=O)N[C@@H](CC(C)C)C(=O)N[C@H](C(=O)N[C@@H](CCCNC(=N)N)C(=O)N[C@@H](CCC(N)=O)C(=O)N[C@@H](CCCNC(=N)N)C(=O)N[C@@H](Cc1ccc(O)cc1)C(N)=O)[C@@H](C)O)[C@@H](C)O [Compound 43, N{alpha-4}-(3-Methylbutanoyl)-N{Epsilon-7}-[(4S)-4-carboxy-4-(17-carboxy-heptadecanoylamino)butanoyl]-[Arg4,Lys7,Thr9,Gln18,Gln22,Tyr28,Trp30,Leu31]hPYY(4-36)] | > 10000 | 0.77 | –
2 | – | – | CC(C)CC(=O)N[C@@H](CCCNC(=N)N)C(=O)N1CCC[C@H]1C(=O)N[C@@H](CCC(=O)O)C(=O)N[C@@H](C)C(=O)N1CCC[C@H]1C(=O)NCC(=O)N[C@@H](CCCCNC(=O)COCCOCCNC(=O)COCCOCCNC(=O)CC[C@H](NC(=O)CCCCCCCCCCCCCCCCC(=O)O)C(=O)O)C(=O)N[C@@H](CC(=O)O)C(=O)N[C@@H](C)C(=O)N[C@@H](CO)C(=O)N1CCC[C@H]1C(=O)N[C@@H](CCC(=O)O)C(=O)N[C@@H](CCC(=O)O)C(=O)N[C@@H](CC(C)C)C(=O)N[C@@H](CCC(N)=O)C(=O)N[C@@H](CCCNC(=N)N)C(=O)N[C@@H](Cc1ccc(O)cc1)C(=O)N[C@@H](Cc1ccc(O)cc1)C(=O)N[C@@H](CCC(=O)O)C(=O)N[C@@H](CO)C(=O)N[C@@H](CC(C)C)C(=O)N[C@@H](CCCNC(=N)N)C(=O)N[C@@H](Cc1c[nH]cn1)C(=O)N[C@@H](Cc1ccc(O)cc1)C(=O)N[C@@H](Cc1ccc(O)cc1)C(=O)N[C@@H](CC(N)=O)C(=O)N[C@@H](Cc1c[nH]c2ccccc12)C(=O)N[C@@H](CC(C)C)C(=O)N[C@H](C(=O)N[C@@H](CCCNC(=N)N)C(=O)N[C@@H](CCC(N)=O)C(=O)N[C@@H](CCCNC(=N)N)C(=O)N[C@@H](Cc1ccc(O)cc1)C(N)=O)[C@@H](C)O [Compound 51, N{alpha-4}-(3-Methylbutanoyl)-N{Epsilon-10}-[2-[2-[2-[[2-[2-[2-[[(4S)-4-carboxy-4-(17-carboxyheptadecanoylamino)butanoyl]amino]ethoxy]ethoxy]acetyl]-amino]ethoxy]ethoxy]acetyl]-[Arg4,Lys10,Gln18,Glu22,Tyr28,Trp30,Leu31]-PYY(4-36)] | 2410 | – | > 10000
3 | > 10000 | 5690 | CC(C)CC(=O)N[C@@H](CCCNC(=N)N)C(=O)N1CCC[C@H]1C(=O)N[C@@H](CCC(=O)O)C(=O)N[C@@H](C)C(=O)N1CCC[C@H]1C(=O)NCC(=O)N[C@@H](CCCCNC(=O)COCCOCCNC(=O)COCCOCCNC(=O)CC[C@H](NC(=O)CCCCCCCCCCCCCCCCC(=O)O)C(=O)O)C(=O)N[C@@H](CC(=O)O)C(=O)N[C@@H](C)C(=O)N[C@@H](CO)C(=O)N1CCC[C@H]1C(=O)N[C@@H](CCC(=O)O)C(=O)N[C@@H](CCC(=O)O)C(=O)N[C@@H](CC(C)C)C(=O)N[C@@H](CCC(N)=O)C(=O)N[C@@H](CCCNC(=N)N)C(=O)N[C@@H](Cc1ccc(O)cc1)C(=O)N[C@@H](Cc1ccc(O)cc1)C(=O)N[C@@H](C)C(=O)N[C@@H](CCC(=O)O)C(=O)N[C@@H](CC(C)C)C(=O)N[C@@H](CCCNC(=N)N)C(=O)N[C@@H](Cc1c[nH]cn1)C(=O)N[C@@H](Cc1ccc(O)cc1)C(=O)N[C@@H](Cc1ccc(O)cc1)C(=O)N[C@@H](CC(N)=O)C(=O)N[C@@H](Cc1c[nH]c2ccccc12)C(=O)N[C@@H](CC(C)C)C(=O)N[C@H](C(=O)N[C@@H](CCCNC(=N)N)C(=O)N[C@@H](CCC(N)=O)C(=O)N[C@@H](CCCNC(=N)N)C(=O)N[C@@H](Cc1ccc(O)cc1)C(N)=O)[C@@H](C)O [Compound 52, N{alpha-4}-(3-Methylbutanoyl)-N{Epsilon-10}-[2-[2-[2-[[2-[2-[2-[[(4S)-4-carboxy-4-(17-carboxyheptadecanoylamino)butanoyl]amino]ethoxy]ethoxy]acetyl]amino]-ethoxy]ethoxy]acetyl]-[Arg4,Lys10,Gln18,Glu23,Tyr28,Trp30,Leu31]-PYY(4-36)] | – | – | –
4 | – | – | CC(C)CC(=O)N[C@@H](CCCNC(=N)N)C(=O)N1CCC[C@H]1C(=O)N[C@@H](CCC(=O)O)C(=O)N[C@@H](C)C(=O)N1CCC[C@H]1C(=O)N1CCC[C@H]1C(=O)N[C@@H](CCCCNC(=O)CC[C@H](NC(=O)COCCOCCNC(=O)CC[C@H](NC(=O)CCCCCCCCCCCCCCCCC(=O)O)C(=O)O)C(=O)O)C(=O)N[C@@H](CC(=O)O)C(=O)N[C@@H](C)C(=O)N[C@@H](CO)C(=O)N1CCC[C@H]1C(=O)N[C@@H](CCC(=O)O)C(=O)N[C@@H](CCC(=O)O)C(=O)N[C@@H](CC(C)C)C(=O)N[C@@H](CCC(N)=O)C(=O)N[C@@H](CCCNC(=N)N)C(=O)N[C@@H](Cc1ccc(O)cc1)C(=O)N[C@@H](Cc1ccc(O)cc1)C(=O)N[C@@H](CCC(=O)O)C(=O)N[C@@H](CO)C(=O)N[C@@H](CC(C)C)C(=O)N[C@@H](CCCNC(=N)N)C(=O)N[C@@H](Cc1c[nH]cn1)C(=O)N[C@@H](Cc1ccc(O)cc1)C(=O)N[C@@H](Cc1ccc(O)cc1)C(=O)N[C@@H](CC(N)=O)C(=O)N[C@@H](Cc1c[nH]c2ccccc12)C(=O)N[C@@H](CC(C)C)C(=O)N[C@H](C(=O)N[C@@H](CCCNC(=N)N)C(=O)N[C@@H](CCC(N)=O)C(=O)N[C@@H](CCCNC(=N)N)C(=O)N[C@@H](Cc1ccc(O)cc1)C(N)=O)[C@@H](C)O [Compound 54, N{alpha-4}-(3-Methylbutanoyl)-N{Epsilon-10}-[(4S)-4-carboxy-4-[[2-[2-[2-[[(4S)-4-carboxy-4-(17-carboxyheptadecanoylamino)butanoyl]amino]ethoxy]ethoxy]-acetyl]amino]butanoyl]-[Arg4,Pro9,Lys10,Gln18,Glu22,Tyr28,Trp30,Leu31]-PYY(4-36)] | – | 1.6 | –
